Experimental data as given in article PMC7497253, “Structure‐Based Macrocyclization of Substrate Analogue NS2B‐NS3 Protease Inhibitors of Zika, West Nile and Dengue viruses” (Chemmedchem, 2020).
Where two headings read alike, the source gives them in different places. Starred links: 1 amine or outer side, 2 acyl side, 3 side chain; linkers in the order of their positions; H or OH if unused. Non-standard residues stand in square brackets, D forms with d. Residues, ends and D or L forms follow the SMILES beside them. dεLys(Nα-amidino) = N=C(N)N[C@H](CCCCN[*:1])C(=O)[*:2]; βAla = NCCC(=O)O

Columns and labels:
Format in all cases: biochemical
[1] = biological target: T1, WNV NS2B-NS3 protease (WNV-Pro) (West Nile virus, UniProt P06935); assay: Enzyme kinetics with the covalent WNV NS2B-NS3 construct, substrate Phac-Leu-Lys-Lys-Arg-AMC
T1 construct: NS3 has to form a complex with its cofactor NS2B to achieve proteolytic activity; The viral protease consists of the N‐terminal third of the nonstructural protein NS3
Experimental: (§1) Enzyme kinetics. Measurements with bZiPro15 and the covalent WNV NS2B‐NS3 construct^10 were performed at room temperature in black 96 well plates using a Fluoroskan Ascent® plate reader (Thermo Fisher Scientific, Vantaa, Finland) with λ ex at 355 nm and λ em at 460 nm. Each well contained 125 μL inhibitor dissolved in buffer (for bZiPro: 20 mM Tris×HCl pH 8.5, 2 mM DTT, 10 w/v glycerol and 0.01 w/v Triton X‐100;18 for WNV protease: 100 mM Tris×HCl pH 8.5, containing 32 w/v glycerol and 0.01 w/v Triton X‐10012) and 50 μL substrate Phac‐Leu‐Lys‐Lys‐Arg‐AMC12 (40 μM for bZiPro (10 μM in assay, K M=1.4 μM) and 400 μM for the WNV protease (100 μM in assay, K M=53 μM)). The measurements were started by addition of 25 μL enzyme solution (16 nM for bZiPro (2.0 nM in assay), and 64 nM for the WNV protease (8.0 nM in assay)). Data points were collected each 15 s over a period of 10 min using eight different inhibitor concentrations. […] The K i values and their standard deviation were obtained from at least three independent measurements.(1) vi=Vmax×[S]/KM1+[I]/Ki+[S]

[2] = biological target: T2, bZiPro (unlinked binary Zika virus NS2B-NS3 protease) (Zika virus, UniProt A0A024B7W1); assay: Enzyme kinetics with bZiPro, fluorogenic substrate Phac-Leu-Lys-Lys-Arg-AMC
T2 construct: The viral protease consists of the N‐terminal third of the nonstructural protein NS3; the NS2B construct ends at Glu96; His6 (cleaved yes); made in house
Experimental: as §1
The constants K M and V max were obtained from independent measurements with six different substrate concentrations in absence of inhibitor. For inhibitor 10 with bZiPro, additional measurements at three substrate concentrations (10, 5, and 2.5 μM in assay) were performed to obtain the Dixon plot shown in Figure 4.

[3] = biological target: T3, bD4Pro (unlinked binary dengue-4 virus NS2B-NS3 protease) (Dengue virus type 4, UniProt Q2YHF2); assay: Enzyme kinetics with bD4Pro, substrate Benzoyl-Nle-Lys-Arg-Arg-AMC
T3 construct: The viral protease consists of the N‐terminal third of the nonstructural protein NS3; NS3 has to form a complex with its cofactor NS2B to achieve proteolytic activity; His6 (cleaved yes); made in house
T3 sequence (Q2YHF2 1475-1652 limits assumed): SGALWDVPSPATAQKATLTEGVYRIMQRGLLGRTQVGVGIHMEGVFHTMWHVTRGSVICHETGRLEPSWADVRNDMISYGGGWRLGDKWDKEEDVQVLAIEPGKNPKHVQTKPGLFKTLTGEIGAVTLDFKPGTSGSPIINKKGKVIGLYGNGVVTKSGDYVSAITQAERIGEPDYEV
T3 sequence (Q2YHF2 1397-1436 limits assumed): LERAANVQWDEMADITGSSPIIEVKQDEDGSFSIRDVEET
Experimental: Measurements with the dengue 4 virus protease construct (bD4Pro; expressed and purified by a similar methodology as described for bZiPro15 with slight modification of using Tobacco Etch Virus (TEV) protease instead of thrombin for His6‐tag cleavage) were performed in a Cytation 3 Mulitmode plate reader with λ ex at 380 nm and λ em at 460 nm. Assays were carried out as triplicate at 37 °C. Before measurement, the protease (final assay concentration 3 nM) was preincubated with varying concentrations of inhibitors in assay buffer (20 mM Tris pH 8.5, 10 % glycerol, 0.01 % Triton X‐100) for 1 h at room temperature in Corning black clear bottom 96‐well plates. The reaction was started by addition of the substrate Benzoyl‐Nle‐Lys‐Arg‐Arg‐AMC (final assay concentration 50 μM, K M=48.4 μM). Fluorescent readings were recorded at 1‐minute intervals over 10 minutes. The steady‐state rates v i in presence of inhibitor were calculated from the slopes of the progress curves using Graph Pad Prism. The v i values were fitted to Equation (2) as function of the inhibitor concentration [I] providing the IC50 values, where v 0 is the rate in absence of inhibitor and s a slope factor. The obtained IC50 values were finally converted into K i values by the Cheng‐Prusoff Equation (2).(2) vi=v0/1+I/IC50^s (3) Ki=IC50/1+S/KM

[4] = K i bZiPro, mean±SD of at least three independent measurements, substrate 10 μM in assay, room temperature, pH 8.5
[5] = mean±SD of at least three independent measurements, substrate 100 μM in assay, room temperature, pH 8.5, read-out: K i WNV-Pro
[6] = mean±SD of at least three independent measurements, substrate 10 μM in assay, room temperature, pH 8.5, read-out: K i bZiPro
[7] = mean±SD of at least three independent measurements, 37 °C, IC50 converted into K i by Cheng-Prusoff, read-out: K i bD4Pro

T2 sequence (A0A024B7W1 1503-1680 limits assumed): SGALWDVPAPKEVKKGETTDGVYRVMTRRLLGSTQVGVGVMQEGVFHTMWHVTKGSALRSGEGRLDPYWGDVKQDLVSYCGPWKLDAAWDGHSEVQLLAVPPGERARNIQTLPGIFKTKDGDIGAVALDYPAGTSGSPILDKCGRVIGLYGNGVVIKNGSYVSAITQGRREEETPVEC
T2 sequence (A0A024B7W1 1425-1464 limits assumed): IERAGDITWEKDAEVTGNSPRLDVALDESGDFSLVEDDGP
T1 sequence (P06935 1424-1463): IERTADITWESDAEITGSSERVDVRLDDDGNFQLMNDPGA
T1 sequence (P06935 1502-1679): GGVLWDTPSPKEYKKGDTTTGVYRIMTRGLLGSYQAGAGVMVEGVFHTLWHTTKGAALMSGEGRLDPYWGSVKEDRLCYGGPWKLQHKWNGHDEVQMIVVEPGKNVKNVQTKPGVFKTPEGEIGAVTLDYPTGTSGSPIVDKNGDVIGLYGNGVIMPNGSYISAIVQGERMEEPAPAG

NCCCC[C@@H]1NC(=O)Cc2cccc(c2)CNC(=O)CNC(=O)[C@H](NC(N)=O)CCCCNC(=O)[C@H](CCCCN)NC1=O [Inhibitor 21]
Ki [1]: 68 µM | Ki [2, 4]: 12 µM | Ki [3]: 135 µM

CC(C)[C@@H]1NC(=O)[C@H](NC(=N)N)CCCCNC(=O)[C@H](CCCCN)NC(=O)[C@H](CCCCN)NC(=O)Cc2cccc(c2)CNC1=O [Inhibitor 17]
Ki [1]: 6.71 ± 0.32 µM | Ki [2, 4]: 0.0428 ± 0.0022 µM | Ki [3]: 2.81 ± 0.18 µM

CC(=O)NCc1cccc(CC(=O)N[C@@H](CCCCN)C(=O)N[C@@H](CCCCN)C(=O)NCCCC[C@@H](NC(=N)N)C(N)=O)c1 [Inhibitor 31]
Ki [1]: 1.48 ± 0.1 µM | Ki [2, 4]: 0.00948 ± 0.00061 µM | Ki [3]: 1.21 ± 0.09 µM

N=C(N)N[C@H]1CC[C@H](CNC(=O)[C@H](CCCCN)NC(=O)[C@H](CCCCN)NC(=O)Cc2ccc(Cl)c(Cl)c2)CC1 [Inhibitor 1, 3,4‐dichloro‐Phac‐Lys‐Lys‐GCMA, reference compound]
Ki ([2]; K i against bZiPro / ZIKV protease, value given in running text): 0.014 µM

N=C(N)N[C@@H]1CCCCNC(=O)[C@H](CCCCN)NC(=O)[C@H](CCCCN)NC(=O)CNC(=O)CCNC(=O)CNC1=O [Inhibitor 27] (cyclo(G[βAla]GKK[dεLys(Nα-amidino)]))
Ki [1, 5]: 0.468 ± 0.003 µM | Ki [2, 6]: 0.00735 ± 0.00039 µM | Ki [3, 7]: 0.815 ± 0.079 µM

N=C(N)N[C@@H]1CCCCNC(=O)[C@H](CCCCN)NC(=O)[C@H](CCCCN)NC(=O)CCNC(=O)CNC(=O)CNC1=O [Inhibitor 26] (cyclo(GG[βAla]KK[dεLys(Nα-amidino)]))
Ki [1, 5]: 0.0686 ± 0.0131 µM | Ki [2, 6]: 0.00172 ± 3e-05 µM | Ki [3, 7]: 0.16 ± 0.005 µM

N=C(N)N[C@@H]1CCCCNC(=O)[C@H](CCCCN)NC(=O)[C@H](CCCCN)NC(=O)CCCNC(=O)CNC1=O [Inhibitor 22]
Ki [1]: 6.7 ± 0.52 µM | Ki [2, 4]: 0.124 ± 0.008 µM | Ki [3]: 6.09 ± 0.47 µM

N=C(N)N[C@H](CCCCNC(=O)[C@H](CCCCN)NC(=O)[C@H](CCCCN)NC(=O)Cc1cccc(CNC(=O)CN)c1)C(N)=O [Inhibitor 30]
Ki [1]: 1.55 ± 0.38 µM | Ki [2, 4]: 0.0136 ± 0.0026 µM | fold improved potency compared with 29 ([2]; uncharged amide analogue versus free P1 carboxyl compound 29): more than 100 fold | Ki [3]: 0.775 ± 0.047 µM

N=C(N)N[C@@H]1CCCCNC(=O)[C@H](CCCCN)NC(=O)[C@H](CCCCN)NC(=O)CNC(=O)CNC(=O)CCNC1=O [Inhibitor 28] (cyclo([βAla]GGKK[dεLys(Nα-amidino)]))
Ki [1, 5]: 0.974 ± 0.134 µM | Ki [2, 6]: 0.0128 ± 0.0005 µM | Ki [3, 7]: 2.72 ± 0.19 µM

N=C(N)N[C@@H]1CCCCNC(=O)[C@H](CCCCN)NC(=O)[C@H](CCCCN)NC(=O)Cc2cccc(c2)CNC1=O [Inhibitor 12]
Ki [1]: 15.3 ± 0.8 µM | Ki [2, 4]: 0.0373 ± 0.0047 µM | Ki [3]: 1.28 ± 0.05 µM

N=C(N)N[C@H]1CCCNC(=O)[C@H](CCCCN)NC(=O)[C@H](CCCCN)NC(=O)Cc2ccc(cc2)CNC(=O)CCCNC1=O [Inhibitor 3]
Ki [1]: 27.8 ± 4.4 µM | Ki [2, 4]: 0.846 ± 0.111 µM | Ki [3]: 117 ± 5 µM

N=C(N)N[C@H](CCCCNC(=O)[C@H](CCCCN)NC(=O)[C@H](CCCCN)NC(=O)Cc1cccc(CNC(=O)CN)c1)C(=O)O [Inhibitor 29]
Ki [1]: 51.6 ± 0.7 µM | Ki [2, 4]: 2.04 ± 0.6 µM | times less potent inhibitor of bZiPro than analogue 10 ([2]; compared with cyclic analogue 10): more than 1000 times | Ki [3]: 75 ± 3.4 µM

C[C@@H]1NC(=O)[C@H](NC(=N)N)CCCCNC(=O)[C@H](CCCCN)NC(=O)[C@H](CCCCN)NC(=O)Cc2cccc(c2)CNC1=O [Inhibitor 15]
Ki [1]: 1.39 ± 0.32 µM | Ki [2, 4]: 0.0182 ± 0.0051 µM | Ki [3]: 3.6 ± 0.38 µM

NCCCC[C@@H]1NC(=O)Cc2ccc(cc2)CNC(=O)CCCNC(=O)[C@H](N)CCCNC(=O)[C@H](CCCCN)NC1=O [Inhibitor 7]
Ki [1, 5]: 31.7 ± 3.6 µM | Ki [2, 6]: 13.2 ± 1.7 µM | Ki [3, 7]: 30.6 ± 3.9 µM

N=C(N)N[C@H]1CCCCNC(=O)[C@H](CCCCN)NC(=O)[C@H](CCCCN)NC(=O)Cc2ccc(cc2)CNC(=O)CCCNC1=O [Inhibitor 2]
Ki [1]: 6.3 ± 0.49 µM | Ki [2, 4]: 0.0918 ± 0.006 µM | Ki [3]: 11 ± 1 µM
